Columns and labels:
WT mice = assay: Prevention of caerulein-induced acute pancreatitis in WT mice; assay type: in vivo, mouse; conditions: evaluated 24 h after first caerulein dose, Dabigatran 200 mg/kg×2, Camostat 300 mg/kg×2
Description: (§1) The secretagogue overstimulation model of experimental pancreatitis with caerulein, is a commonly used AP model (Zhan et al., Gastrointestinal Liver Physiology, 311:G343-55 (2016)). This model was accomplished by repeated intraperitoneal (ip) injections of caerulein (100 μg/kg/hour) once per hour (Huang et al., Gastroenterology, 144:202-10 (2013)).
Camostat mesilate (Santa Cruz), Dabigatran etexilate mesylate (a prodrug for Dabigatran, TRC Canada), and Ximelagatran (a prodrug for Melagatran, Sigma-Aldrich) were dissolved in 10% β-Cyclodextrin (Sigma-Aldrich). […]
Pancreas edema, serum amylase, and histology were evaluated as described elsewhere (Gaiser et al., Gut, 60:1379-88 (2011); Huang et al., Gastroenterology, 144:202-10 (2013); and Daniluk et al., J. Clin. Invest., 122:1519-28 (2012)).
The effect of Dabigatran on experimental pancreatitis in WT mice was evaluated. Dabigatran and Camostat were administrated by oral gavage two hours before the initiation of AP by six hourly injections of caerulein (FIG. 1A). Twenty-four hours after the first dose of caerulein, the severity of pancreatitis was evaluated.

PRSS1R122H mice [1] = assay: Prevention of caerulein-induced pancreatitis in mouse model of human hereditary pancreatitis (PRSS1R122H); assay type: in vivo; conditions: Dabigatran 200 mg/kg×2, Camostat 300 mg/kg×2
Description: as §1
A model of human hereditary pancreatitis (HP) was developed by using a bacterial artificial chromosome (BAC, clone RP11-701D14) harboring the full-length human PRSS1 gene containing an intact PRSS1 promoter, all exons and introns, and the 3′ untranslated region for faithful recapitulation of the gene's expression. An R122H point mutation was introduced by two rounds of genetic targeting using Galk-mediated recombineering (PRSS1^R122H) (Warming et al., Nucleic Acids Research, 33:e36 (2005)). This transgene expressed PRSS1^R122H at ˜50% of the endogenous human PRSS1 protein level as detected by Western blot (WB) and real-time RT-PCR. Taking into account that the PRSS1^R122H mutation was heterozygous, and that mutated PRSS1 constituted 50% of the total PRSS1 in human HP, this model does expressPRSS1^R122H at a physiologically relevant level. In this mouse model, spontaneous AP and CP were not observed. However, these mice developed more severe AP following the induction of AP with caerulein injection. More importantly, all of the PRSS1^R122H mice, but none of the WT mice, developed CP with an observed histopathology similar to that seen in human HP (Singhi et al., Am. J. Surg. Path., 38:346-53 (2014)). Therefore, this model faithfully recapitulates the histological changes observed during human HP (Singhi et al., Am. J. Surg. Path., 38:346-53 (2014)). […]
(§2) Pancreas edema, serum amylase, and histology were evaluated as described elsewhere (Gaiser et al., Gut, 60:1379-88 (2011); Huang et al., Gastroenterology, 144:202-10 (2013); and Daniluk et al., J. Clin. Invest., 122:1519-28 (2012)). […]

PRSS1R122H mice [2] = assay: Therapeutic administration after AP induction in PRSS1R122H mice, progression to chronic pancreatitis; assay type: in vivo, mouse; conditions: administered four hours after AP induction by caerulein, treated for additional five days, Dabigatran 200 mg/kg Bid, Camostat 300 mg/kg Bid
Description: as §1
A model of human hereditary pancreatitis (HP) was developed by using a bacterial artificial chromosome (BAC, clone RP11-701D14) harboring the full-length human PRSS1 gene containing an intact PRSS1 promoter, all exons and introns, and the 3′ untranslated region for faithful recapitulation of the gene's expression. An R122H point mutation was introduced by two rounds of genetic targeting using Galk-mediated recombineering (PRSS1^R122H) (Warming et al., Nucleic Acids Research, 33:e36 (2005)). This transgene expressed PRSS1^R122H at ˜50% of the endogenous human PRSS1 protein level as detected by Western blot (WB) and real-time RT-PCR. […]
as §2

mutant trypsinogen mice = assay: Prevention of pancreatitis in mouse model expressing active trypsin (PACE-trypsinogen); assay type: in vivo; conditions: pretreated two hours prior to caerulein and seven hours after final caerulein injection, Dabigatran 200 mg/kg×2, Camostat 300 mg/kg×2, Ximelagatran 40 mg/kg×2
Description: as §1
A PACE-activated trypsinogen model in which the original enteropeptidase cleavage site (DDDDK) was replaced by a PACE cleavage site (RTKR), using site-specific mutagenesis of the wild type rat trypsinogen cDNA, was produced (Ji et al., J. Biol. Chem., 284:17488-98 (2009)). PACE, paired basic amino acid cleaving enzyme (also called furin), is a mammalian propeptide-processing endoprotease that is present in the trans-Golgi network of virtually all cells. To target expression of PACE-trypsinogen specifically to pancreatic acinar cells, conditional LGL (loxP-GFP-stop-loxP)-PACE-trypsinogen transgenic mice were bred with full-length, acinar specific, elastase promoter-regulated Cre transgenic mice. […]
as §2

[3] = system: human having pancreatitis; assay: Treating a human identified as having pancreatitis (Example 2); assay type: in vivo; conditions: 112 mg dabigatran or 150 mg dabigatran etexilate at least twice a day for one to three weeks
Description: A human identified as having pancreatitis is administered 112 mg of dabigatran or 150 mg of dabigatran etexilate at least twice a day for one to three weeks.

What does the source list for `CN(C)C(=O)COC(=O)Cc1ccc(OC(=O)c2ccc(NC(=N)N)cc2)cc1` [Camostat, Camostat mesilate]?
pancreatic edema (pancreas/body weight ratio) (WT mice; oral gavage two hours before six hourly caerulein injections (100 μg/kg×6)): moderately reduce; serum amylase levels (WT mice; oral gavage two hours before six hourly caerulein injections): no significant effect; pancreatic edema (pancreas/body weight ratio) (PRSS1R122H mice [1]; pretreatment before caerulein (100 μg/kg×6)): only slightly improved; pancreatic histology (PRSS1R122H mice [1]; pretreatment before caerulein): only slightly improved; serum amylase levels (PRSS1R122H mice [1]; pretreatment before caerulein): only slightly improved; progression of AP to CP (pancreas/body weight ratio, histology) (PRSS1R122H mice [2]): no positive effects on preventing the development of CP; development of severe AP (pancreas edema, serum amylase) (mutant trypsinogen mice): no ability to prevent the development of severe AP

`CCCCCCOC(=O)N=C(N)c1ccc(NCc2nc3cc(C(=O)N(CCC(=O)OCC)c4ccccn4)ccc3n2C)cc1` [dabigatran etexilate] was tested. Which “severity of the pancreatitis” value [3] did it give?
Its value is “reduction in the severity of the pancreatitis”.
